Assay results: ChEMBL document CHEMBL1782037, “Discovery and characterization of a nonphosphorylated cyclic peptide inhibitor of the peptidylprolyl isomerase, Pin1” (J Med Chem, 2011)
Calls of active or inactive are those of the source. The calls are words filed in the database; no cut-off is given here. Positions of bridges follow the written chain, without caps; N, C: chain ends. Residues, ends and D or L forms follow the SMILES beside them.

Tests used:
[1] = target: T1, Peptidyl-prolyl cis-trans isomerase NIMA-interacting 1 (Homo sapiens, UniProt Q13526); assay: Inhibition of human GST-tagged-Pin1 PPIase activity using Suc-AEPF-pNA as substrate by Michaelis-Menten equation
[2] = Solubility of the compound; format: physicochemical
[3] = target: T1, Peptidyl-prolyl cis-trans isomerase NIMA-interacting 1; assay: Competitive inhibition of human GST-tagged-Pin1 PPIase activity using WFYpSPR-pNA as substrate by Michaelis-Menten equation
[4] = target: T1, Peptidyl-prolyl cis-trans isomerase NIMA-interacting 1; assay: Binding affinity to human Pin1 WW domain at 200 uM by agarose gel electrophoresis
[5] = target: T1, Peptidyl-prolyl cis-trans isomerase NIMA-interacting 1; assay: Binding affinity to human Pin1 WW domain at 480 uM by NMR chemical shift perturbation method
[6] = target: T1, Peptidyl-prolyl cis-trans isomerase NIMA-interacting 1; assay: Binding affinity to human Pin1 PPIase domain at 480 uM by NMR chemical shift perturbation method
[7] = target: T1, Peptidyl-prolyl cis-trans isomerase NIMA-interacting 1; assay: Binding affinity to human Pin1 active site at 200 uM by NMR study
[8] = target: T1, Peptidyl-prolyl cis-trans isomerase NIMA-interacting 1; assay: Binding affinity to human Pin1 PPIase domain at 200 uM by agarose gel electrophoresis

T1 sequence (Q13526 whole entry): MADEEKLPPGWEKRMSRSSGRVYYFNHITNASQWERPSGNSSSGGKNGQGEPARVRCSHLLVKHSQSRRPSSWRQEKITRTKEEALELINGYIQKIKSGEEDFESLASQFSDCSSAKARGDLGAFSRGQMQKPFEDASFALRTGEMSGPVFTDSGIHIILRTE

| Ki [1] [µM] | solubility [2] | Ki [3] [µM] | Activity [4] | Activity [5] | Activity [6] | Activity [7] | Activity [8] | Compound |
| --- | --- | --- | --- | --- | --- | --- | --- | --- |
| 44 |  |  |  |  |  |  |  | CC[C@H](C)[C@H](NC(=O)[C@H](CCC(=O)O)NC(=O)[C@@H](NC(=O)[C@H](CCC(=O)O)NC(=O)[C@@H]1CCCN1C(=O)[C@H](Cc1ccc(O)cc1)NC(=O)[C@H](CCCN=C(N)N)NC(=O)[C@@H](N)CS)C(C)C)C(=O)N[C@@H](CS)C(=O)O [CRYPEVEIC] (H-CRYPEVEIC-OH) |
| 0.52 | soluble | 0.2 |  |  |  |  |  | CC[C@H](C)[C@@H]1NC(=O)[C@H](CCC(=O)O)NC(=O)[C@H](C(C)C)NC(=O)[C@H](CCC(=O)O)NC(=O)[C@@H]2CCCN2C(=O)[C@H](Cc2ccc(O)cc2)NC(=O)[C@H](CCCN=C(N)N)NC(=O)[C@@H](N)CSSC[C@@H](C(=O)O)NC1=O [CYCLIC CRYPEVEIC] (H-CRYPEVEIC-OH; disulfide 1-9) |
|  |  |  | inactive | inactive | Active | Active | Active | CC[C@H](C)[C@@H]1NC(=O)[C@H](CCC(=O)O)NC(=O)[C@H](C(C)C)NC(=O)[C@H](CCC(=O)O)NC(=O)[C@@H]2CCCN2C(=O)[C@H](Cc2ccc(O)cc2)NC(=O)[C@H](CCCNC(=N)N)NC(=O)[C@@H](N)CSSC[C@@H](C(=O)O)NC1=O (H-CRYPEVEIC-OH; disulfide 1-9) |
